Measurements taken from US9309243B2, “Imidazopyridine derivatives as modulators of TNF activity” (UCB Biopharma SPRL, priority 2012, dated 2016).

melting point: 143 to 144 °C
Compound: Cc1nc2cc(F)c(-c3cnc(C4(O)COC4)nc3)cn2c1Cc1ccccc1OC(F)F [Example 322, 3-[5-(3-{[2-(Difluoromethoxy)phenyl]methyl}-7-fluoro-2-methylimidazo[1,2-a]pyridin-6-yl)pyrimidin-2-yl]oxetan-3-ol]
